In PubChem BioAssay AID248 (DTP/NCI, 2004):
“And” between values parts separate entries of the source, which are not always exact repeats. Equal entries are not always repeated. Inconclusive results and toxic doses are left out. Rule as the data show it: active = T/C of 150% or more; inactive = T/C below 125%.

Test system: L1210 leukemia ip in BDF1 mice, survival T/C
Assay: NCI In Vivo Anticancer Drug Screen. Data for tumor model L1210 Leukemia (intraperitoneal) in B6D2F1 (BDF1) mice
Conditions: higher = longer survival
In short: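 Read-out is survival time, reported as the treated-group measurement over the vehicle-control measurement.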

[1] = endpoint: mean survival time, dose: 100.0 mg/kg/injection, schedule: Q01DX001 (ip), vehicle: saline
[2] = endpoint: mean survival time, dose: 200.0 mg/kg/injection, schedule: Q01DX001 (ip), vehicle: saline

Measured: T/C

CS(=O)(=O)OCCCNCCCOS(C)(=O)=O
active: endpoint: mean survival time, dose: 5.0 mg/kg/injection, schedule: Q03HX024 (ip), vehicle: saline 152 % of control | endpoint: mean survival time, dose: 8.4 mg/kg/injection, schedule: Q01DX009 (ip), vehicle: saline 160 % of control and 173 % of control | endpoint: mean survival time, dose: 8.4 mg/kg/injection, schedule: Q03HX008 (ip), vehicle: saline 150 % of control | endpoint: mean survival time, dose: 8.4 mg/kg/injection, schedule: Q03HX016 (ip), vehicle: saline 156 % of control | endpoint: mean survival time, dose: 8.4 mg/kg/injection, schedule: Q03HX024 (ip), vehicle: saline 155 % of control and 245 % of control | endpoint: mean survival time, dose: 14.0 mg/kg/injection, schedule: Q01DX015 (ip), vehicle: saline 155 % of control | endpoint: mean survival time, dose: 14.0 mg/kg/injection, schedule: Q03HX008 (ip), vehicle: saline 166 % of control and 239 % of control | endpoint: mean survival time, dose: 14.0 mg/kg/injection, schedule: Q03HX016 (ip), vehicle: saline 188 % of control and 303 % of control | endpoint: mean survival time, dose: 14.0 mg/kg/injection, schedule: Q03HX024 (ip), vehicle: saline 332 % of control and 344 % of control | endpoint: mean survival time, dose: 20.0 mg/kg/injection, schedule: Q01DX009 (ip), vehicle: saline 164 % of control and 179 % of control | endpoint: mean survival time, dose: 21.0 mg/kg/injection, schedule: Q01DX015 (ip), vehicle: saline 155 % of control | endpoint: mean survival time, dose: 23.0 mg/kg/injection, schedule: Q03HX008 (ip), vehicle: saline 184 % of control and 327 % of control | endpoint: mean survival time, dose: 23.0 mg/kg/injection, schedule: Q03HX016 (ip), vehicle: saline 244 % of control and 440 % of control | endpoint: mean survival time, dose: 36.0 mg/kg/injection, schedule: Q01DX015 (ip), vehicle: saline 242 % of control | endpoint: mean survival time, dose: 39.0 mg/kg/injection, schedule: Q01DX003 (ip), vehicle: saline 164 % of control and 170 % of control | endpoint: mean survival time, dose: 39.0 mg/kg/injection, schedule: Q01DX005 (ip), vehicle: saline 190 % of control | endpoint: mean survival time, dose: 39.0 mg/kg/injection, schedule: Q04DX003 (ip), vehicle: clinical formulation 157 % of control | endpoint: mean survival time, dose: 39.0 mg/kg/injection, schedule: Q04DX003 (ip), vehicle: saline 212 % of control | endpoint: mean survival time, dose: 39.0 mg/kg/injection, schedule: Q08DX002 (ip), vehicle: saline 200 % of control | endpoint: mean survival time, dose: 40.0 mg/kg/injection, schedule: Q01DX009 (ip), vehicle: saline 178 % of control and 188 % of control | endpoint: mean survival time, dose: 60.0 mg/kg/injection, schedule: Q01DX015 (ip), vehicle: saline 159 % of control | endpoint: mean survival time, dose: 65.0 mg/kg/injection, schedule: Q01DX001 (ip), vehicle: saline 160 % of control | endpoint: mean survival time, dose: 65.0 mg/kg/injection, schedule: Q01DX003 (ip), vehicle: saline 241 % of control | endpoint: mean survival time, dose: 65.0 mg/kg/injection, schedule: Q01DX005 (ip), vehicle: saline 402 % of control | endpoint: mean survival time, dose: 65.0 mg/kg/injection, schedule: Q04DX003 (ip), vehicle: clinical formulation 159 % of control | endpoint: mean survival time, dose: 65.0 mg/kg/injection, schedule: Q04DX003 (ip), vehicle: saline 299 % of control and 445 % of control | endpoint: mean survival time, dose: 65.0 mg/kg/injection, schedule: Q04DX003 (ip), vehicle: water 173 % of control | endpoint: mean survival time, dose: 65.0 mg/kg/injection, schedule: Q08DX002 (ip), vehicle: saline 226 % of control | [1] 150 % of control | endpoint: mean survival time, dose: 108.0 mg/kg/injection, schedule: Q01DX001 (ip), vehicle: saline 193 % of control and 337 % of control | endpoint: mean survival time, dose: 108.0 mg/kg/injection, schedule: Q01DX003 (ip), vehicle: saline 247 % of control and 310 % of control | endpoint: mean survival time, dose: 108.0 mg/kg/injection, schedule: Q01DX005 (ip), vehicle: saline 280 % of control | endpoint: mean survival time, dose: 108.0 mg/kg/injection, schedule: Q04DX003 (ip), vehicle: saline 267 % of control and 422 % of control | endpoint: mean survival time, dose: 180.0 mg/kg/injection, schedule: Q01DX001 (ip), vehicle: saline 246 % of control | endpoint: mean survival time, dose: 180.0 mg/kg/injection, schedule: Q08DX002 (ip), vehicle: saline 421 % of control | [2] 157 % of control and 176 % of control and 200 % of control | endpoint: median survival time, dose: 25.0 mg/kg/injection, schedule: Q01DX009 (ip), vehicle: saline 150 % of control | endpoint: median survival time, dose: 39.0 mg/kg/injection, schedule: Q01DX005 (ip), vehicle: saline 155 % of control | endpoint: median survival time, dose: 39.0 mg/kg/injection, schedule: Q01DX009 (ip), vehicle: saline 150 % of control | endpoint: median survival time, dose: 50.0 mg/kg/injection, schedule: Q01DX009 (ip), vehicle: saline 180 % of control | endpoint: median survival time, dose: 50.0 mg/kg/injection, schedule: Q04DX003 (ip), vehicle: saline 161 % of control | endpoint: median survival time, dose: 65.0 mg/kg/injection, schedule: Q01DX005 (ip), vehicle: saline 155 % of control | endpoint: median survival time, dose: 65.0 mg/kg/injection, schedule: Q04DX003 (ip), vehicle: saline 155 % of control | endpoint: median survival time, dose: 100.0 mg/kg/injection, schedule: Q04DX003 (ip), vehicle: saline 177 % of control and 666 % of control | endpoint: median survival time, dose: 108.0 mg/kg/injection, schedule: Q01DX001 (ip), vehicle: saline 155 % of control | endpoint: median survival time, dose: 108.0 mg/kg/injection, schedule: Q04DX003 (ip), vehicle: saline 188 % of control
inactive: endpoint: mean survival time, dose: 3.0 mg/kg/injection, schedule: Q03HX024 (ip), vehicle: saline 122 % of control | endpoint: mean survival time, dose: 5.0 mg/kg/injection, schedule: Q03HX008 (ip), vehicle: saline 119 % of control | endpoint: mean survival time, dose: 14.0 mg/kg/injection, schedule: Q01DX009 (oral), vehicle: saline 100 % of control | endpoint: mean survival time, dose: 23.0 mg/kg/injection, schedule: Q01DX009 (oral), vehicle: saline 115 % of control | endpoint: mean survival time, dose: 23.0 mg/kg/injection, schedule: Q04DX003 (iv), vehicle: saline 98 % of control | endpoint: mean survival time, dose: 25.0 mg/kg/injection, schedule: Q01DX001 (ip), vehicle: saline 115 % of control | endpoint: mean survival time, dose: 39.0 mg/kg/injection, schedule: Q01DX009 (sc), vehicle: saline 120 % of control | endpoint: mean survival time, dose: 39.0 mg/kg/injection, schedule: Q04DX003 (iv), vehicle: saline 87 % of control | endpoint: mean survival time, dose: 65.0 mg/kg/injection, schedule: Q01DX001 (oral), vehicle: saline 109 % of control | endpoint: mean survival time, dose: 65.0 mg/kg/injection, schedule: Q01DX009 (oral), vehicle: saline 106 % of control | endpoint: mean survival time, dose: 65.0 mg/kg/injection, schedule: Q04DX003 (iv), vehicle: saline 109 % of control | endpoint: mean survival time, dose: 65.0 mg/kg/injection, schedule: Q04DX003 (oral), vehicle: saline 120 % of control | endpoint: mean survival time, dose: 80.0 mg/kg/injection, schedule: Q01DX009 (ip), vehicle: saline 94 % of control and 122 % of control | endpoint: mean survival time, dose: 108.0 mg/kg/injection, schedule: Q01DX001 (oral), vehicle: saline 110 % of control | endpoint: mean survival time, dose: 108.0 mg/kg/injection, schedule: Q01DX001 (sc), vehicle: saline 115 % of control | endpoint: mean survival time, dose: 108.0 mg/kg/injection, schedule: Q01DX009 (sc), vehicle: saline 93 % of control | endpoint: mean survival time, dose: 108.0 mg/kg/injection, schedule: Q04DX003 (ip), vehicle: clinical formulation 108 % of control | endpoint: mean survival time, dose: 108.0 mg/kg/injection, schedule: Q04DX003 (ip), vehicle: water 100 % of control | endpoint: mean survival time, dose: 108.0 mg/kg/injection, schedule: Q04DX003 (iv), vehicle: saline 113 % of control | endpoint: mean survival time, dose: 180.0 mg/kg/injection, schedule: Q01DX001 (oral), vehicle: saline 120 % of control | endpoint: mean survival time, dose: 180.0 mg/kg/injection, schedule: Q01DX001 (sc), vehicle: saline 115 % of control | endpoint: mean survival time, dose: 180.0 mg/kg/injection, schedule: Q01DX003 (ip), vehicle: saline 95 % of control and 103 % of control | endpoint: mean survival time, dose: 180.0 mg/kg/injection, schedule: Q04DX003 (iv), vehicle: saline 118 % of control | endpoint: mean survival time, dose: 180.0 mg/kg/injection, schedule: Q04DX003 (oral), vehicle: saline 95 % of control | endpoint: median survival time, dose: 12.5 mg/kg/injection, schedule: Q01DX009 (ip), vehicle: saline 115 % of control | endpoint: median survival time, dose: 23.0 mg/kg/injection, schedule: Q01DX005 (ip), vehicle: saline 122 % of control | endpoint: median survival time, dose: 39.0 mg/kg/injection, schedule: Q01DX005 (sc), vehicle: saline 122 % of control | endpoint: median survival time, dose: 65.0 mg/kg/injection, schedule: Q01DX009 (ip), vehicle: saline 100 % of control and 115 % of control | endpoint: median survival time, dose: 108.0 mg/kg/injection, schedule: Q01DX005 (ip), vehicle: saline 100 % of control | endpoint: median survival time, dose: 108.0 mg/kg/injection, schedule: Q01DX005 (sc), vehicle: saline 88 % of control | endpoint: median survival time, dose: 200.0 mg/kg/injection, schedule: Q04DX003 (ip), vehicle: saline 100 % of control

NC(=S)NN=C1CCCCCCCCCC1
inactive: endpoint: mean survival time, dose: 50.0 mg/kg/injection, schedule: Q01DX001 (ip), vehicle: saline 101 % of control | [1] 101 % of control | [2] 97 % of control | endpoint: mean survival time, dose: 400.0 mg/kg/injection, schedule: Q01DX001 (ip), vehicle: saline 106 % of control

C(C#Cc1ccccc1)#Cc1ccccc1
inactive: endpoint: mean survival time, dose: 100.0 mg/kg/injection, schedule: Q04DX003 (ip), vehicle: saline 94 % of control | endpoint: mean survival time, dose: 200.0 mg/kg/injection, schedule: Q04DX003 (ip), vehicle: saline 100 % of control | endpoint: mean survival time, dose: 400.0 mg/kg/injection, schedule: Q04DX003 (ip), vehicle: saline 97 % of control

C=C(C)C(=O)Nc1ccccc1
inactive: endpoint: mean survival time, dose: 100.0 mg/kg/injection, schedule: Q04DX003 (ip), vehicle: Klucel (hydroxypropylcellulose) (HPC) 86 % of control | endpoint: mean survival time, dose: 200.0 mg/kg/injection, schedule: Q04DX003 (ip), vehicle: Klucel (hydroxypropylcellulose) (HPC) 89 % of control
